Laboratory results from US20080312192A1, “Diaryl Urea Derivatives in the Treatment of Protein Kinase Dependent Diseases” (priority 2003, published 2008).

Biological target: T1, Flt-3 (Homo sapiens, UniProt P36888)
T1 construct: amino acids 563-993 of the cytoplasmic kinase domain of human Flt-3; made in house; host or cells: Sf9 insect cells (baculovirus, vector pFbacG01)
T1 sequence (P36888 563-993): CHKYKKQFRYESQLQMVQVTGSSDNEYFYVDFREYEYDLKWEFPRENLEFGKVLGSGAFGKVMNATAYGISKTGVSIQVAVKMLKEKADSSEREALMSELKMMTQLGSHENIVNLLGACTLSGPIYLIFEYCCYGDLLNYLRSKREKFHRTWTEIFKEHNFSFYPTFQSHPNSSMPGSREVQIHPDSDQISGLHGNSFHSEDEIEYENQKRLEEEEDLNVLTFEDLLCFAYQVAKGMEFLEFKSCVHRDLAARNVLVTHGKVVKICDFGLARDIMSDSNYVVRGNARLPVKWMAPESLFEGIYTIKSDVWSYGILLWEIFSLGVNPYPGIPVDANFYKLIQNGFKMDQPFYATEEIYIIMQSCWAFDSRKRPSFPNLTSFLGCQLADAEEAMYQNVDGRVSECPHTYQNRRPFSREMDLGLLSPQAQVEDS
Test: Flt-3 kinase inhibition (GST-Flt-3, 33P incorporation into poly(Glu,Tyr))
Type: biochemical
Procedure, shortened: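 GST-fused human Flt-3 kinase domain (aa 563-993) from Sf9 cells assayed with 3 μg/mL poly(Glu,Tyr) 4:1, 8.0 μM ATP plus [γ-33P]ATP, Mn2+/Mg2+, pH 7.6, 20 min at ambient temperature. 33P incorporation counted on PVDF; IC50 by linear regression, duplicates at four concentrations (usually 0.01-10 μM).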

| SMILES | IC50 [nM] |
| --- | --- |
| Nc1cc(Oc2ccc(NC(=O)Nc3cc(CN4CCC4)cc(C(F)(F)F)c3)cc2)ncn1 [Example 4, N-[4-(6-Amino-pyrimidin-4-yloxy)-phenyl]-N′-(3-azetidin-1-ylmethyl-5-trifluoromethyl-phenyl)-urea] | 153 |
| CNc1cc(Oc2ccc(NC(=O)Nc3cc(CN4CCN(C(C)C)CC4)cc(C(F)(F)F)c3)cc2)ncn1 [Example 6, N-[4-(6-Methylamino-pyrimidin-4-yloxy)-phenyl]-N′-[3-(4-isopropylpiperazin-1-ylmethyl)-5-trifluoromethyl-phenyl]-urea] | 400 |
| CC(C)N1CCN(Cc2ccc(NC(=O)Nc3ccc(Oc4cc(N)ncn4)cc3)cc2C(F)(F)F)CC1 [Example 19, N-[4-(6-Amino-pyrimidin-4-yloxy)-phenyl]-N′-[4-(4-isopropylpiperazin-1-ylmethyl)-3-trifluoromethyl-phenyl]-urea] | 250 |
| CC(C)(C)N1CCN(Cc2ccc(NC(=O)Nc3ccc(Oc4ccnc(N)n4)cc3)cc2C(F)(F)F)CC1 [Example 50] | 120 |
| Cc1ncn(Cc2ccc(NC(=O)Nc3ccc(Oc4ccnc(N)n4)cc3)cc2C(F)(F)F)c1C [Example 51a.1, 1-[4-(2-Amino-pyrimidin-4-yloxy)-phenyl]-3-(4-(4,5-dimethyl-imidazol-1-ylmethyl)-3-trifluoromethyl-phenyl]-urea] | 85 |
| CN1CCN(Cc2ccc(NC(=O)Nc3ccc(Oc4ccnc(N)n4)cc3)cc2C(F)(F)F)CC1 [Example 52a, 1-[4-(2-amino-pyrimidin-4-yloxy)-phenyl]-3-[4-(4-methylpiperazin-1-ylmethyl)-3-trifluoromethyl-phenyl]-urea] | 120 |
| CCN1CCN(Cc2ccc(NC(=O)Nc3ccc(Oc4ccnc(N)n4)cc3)cc2C(F)(F)F)CC1 [Example 52c, 1-[4-(2-Amino-pyrimidin-4-yloxy)-phenyl]-3-[4-(4-ethyl-piperazin-1-ylmethyl)-3-trifluoromethyl-phenyl]-urea] | 29 |
| CNc1nccc(Oc2ccc(NC(=O)Nc3cc(N4CCN(C)CC4)cc(C(F)(F)F)c3)cc2)n1 [Example 53b, 1-[4-(2-Methylamino-pyrimidin-4-yloxy)-phenyl]-3-[3-(4-methyl-piperazin-1-yl)-5-trifluoromethyl-phenyl]-urea] | 120 |
| CNc1nccc(Oc2ccc(NC(=O)Nc3ccc(N4CCN(C)CC4)c(C(F)(F)F)c3)cc2)n1 [Example 53d, 1-[4-(2-Methylamino-pyrimidin-4-yloxy)-phenyl]-3-[4-(4-methyl-piperazin-1-yl)-3-trifluoromethyl-phenyl]-urea] | 190 |
